# Results reported in patent US6613534B2, “MAP-2 as a determinant of metastatic potential” (Wake Forest University Health Sciences, priority 2001, dated 2003).
# Entries after “also recorded” stand apart in the source; their conditions may differ. Read-outs that look alike come from different tables or passages of the source.
# Experiments:
# [1] = system: MAP-2 mRNA in SK-MEL-19 melanoma cells; experiment: Northern blot of total RNA for MAP-2 expression, cAMP and protein kinase C pathway agents (FIG. 8); format: cell-based, human
# [2] = system: TYRP1 in cultured human metastatic melanoma cells; conditions: cited from earlier work
# [3] = system: mouse erythroleukemia cells (MEL) and a variety of human tumor cells; conditions: cited from earlier work
# [4] = system: SK-MEL-19 human metastatic melanoma cell line; experiment: Cell morphology of HMBA-treated melanoma cells (FIG. 3); format: cell-based; conditions: SK-MEL-19, 5 mM HMBA for 5 days
# [5] = system: TYRP1 mRNA in SK-MEL-19 melanoma cells; experiment: Northern blot of total RNA for TYRP1 expression (FIG. 8); format: cell-based, human
# [6] = system: MAP-2 cDNA (approximately 450 bp fragment) in SK-MEL-19 melanoma cells; experiment: Differential display RT-PCR of control and HMBA-treated cells; format: cell-based, human; conditions: 5 mM HMBA-treated vs control SK-MEL-19 cells
# Procedure: Differential display was used to characterize changes in gene expression associated with growth inhibition in melanoma cells. For differential display (DD), RT-PCR was performed using a GeneAmp System 2400 (Perkin-Elmer Corp., Foster City, Calif.). DD was performed using the DeltaTM Differential Display Kit (Clontech Laboratories Inc.). […] Diluted cDNA (1:12.5 and 1:50) was used to amplify DD-PCR product in the presence of [α-^33P]dATP (Dupont NEN, Boston, Mass.) using a random combination of arbitrary primers and oligo (dT) primers. PCR products were resolved by electrophoresis in a 5% polyacrylamide, 8 M urea sequencing gel. The gel was dried and exposed to Biomax MS film (Kodak, Rochester, N.Y.). Bands differentially expressed between untreated and treated samples were cut, eluted, re-amplified, sequenced by the ABI 377 DNA Sequencer (Perkin-Elmer Corp., Foster City, Calif.). Differential display analysis was performed using RNA obtained from control and HMBA-treated SK-MEL-19 melanoma cells. Primer […] NO: 4) and oligo dT primer […] U32996; nucleotides 1931-2384). […] Cell Biol., 106:779-783 (1988)).
# [7] = system: cultured human metastatic melanoma cells; conditions: cited from earlier work
# [8] = SK-MEL-19, 5 mM HMBA, 2.5 nM CT, 10 ng/ml TPA or combinations, 6, 24 and 48 h
Compound,"MAP-2 expression (MAP-2c mRNA) [1, 8]",TYRP1 expression [2],cell cycle distribution [3],terminal differentiation ([3]; mouse erythroleukemia cells (MEL) and a variety of human tumor cells),cell morphology [4],"TYRP1 mRNA expression [5, 8]",expression of ~450 bp MAP-2 cDNA by differential display [6],cell growth [7],MAP-2 expression (MAP-2c mRNA) [1],TYRP1 mRNA expression [5]
"CC(=O)NCCCCCCNC(C)=O [HMBA, hexamethylene bisacetamide]",up-regulation of MAP-2 expression was detected,selective down-regulation,accumulation of cells in G0/G1 phase with a significant decrease in population of cells in G2/M phase,induce terminal differentiation,induction of dendritic morphology; also recorded: formation of dendrite-like structures,extinction of TYRP1 expression,over expressed in treated cells; also recorded: generates an approximately 450 bp cDNA,inhibits growth,–,–
"CCCCCCCCCCCCCC(=O)O[C@@H]1[C@@H](C)[C@@]2(O)[C@@H](C=C(CO)C[C@]3(O)C(=O)C(C)=C[C@@H]23)[C@@H]2C(C)(C)[C@]12OC(C)=O [TPA, 12-O-tetradecanoyl phorbol-13-acetate]",–,–,–,–,–,–,–,–,did not induce MAP-2 expression; also recorded: does not change MAP-2 expression,did not cause down-regulation of TYRP1 mRNA
cholera toxin [CT],–,–,–,–,–,–,–,–,did not induce MAP-2 expression; also recorded: does not change MAP-2 expression,did not cause down-regulation of TYRP1 mRNA
